According to patent US20260001914A1, “MACROCYCLIC PEPTIDES TARGETING KRAS” (Merck Sharp & Dohme LLC, priority 2022, published 2026):
pEC50: −log10 of the molar value. *1 amine or outer side, *2 acyl side, *3 side chain or, on linkers, in order; H or OH if unused. Where a SMILES comes first, the peptide text is derived from it. Bridges are numbered along the chain shown (N, C = ends). [ ]: non-standard residue; d: D form. Phe(4-guanidino) = N=C(N)Nc1ccc(C[C@H](N)C(=O)O)cc1; X78 = Nc1ccnc2ccc(C[C@H](N[*:1])C(=O)[*:2])cc12; Ala(pyrimidin-5-yl) = N[C@@H](Cc1cncnc1)C(=O)O; Ala(2-pyrazinyl) = N[C@@H](Cc1cnccn1)C(=O)O; Ala(thiazol-5-yl) = N[C@@H](Cc1cncs1)C(=O)O; X67 = O=C([C@H](Cc1ncc(Cl)cn1)N[*:1])[*:2]; Arg(Me2s) = CN=C(NC)NCCC[C@H](N)C(=O)O; NHCH2CH2SCH2CO = O=C(CSCCN[*:1])[*:2]; Ala(cPent) = N[C@@H](CC1CCCC1)C(=O)O; Phe(2-F) = N[C@@H](Cc1ccccc1F)C(=O)O; NMe3Pal = CN[C@@H](Cc1cccnc1)C(=O)O; X1 = O=C(C12CC(CN[*:1])(C1)C2)[*:2]; NMeF = CN[C@@H](Cc1ccccc1)C(=O)O; PhLac = O=C(O)[C@@H](O)Cc1ccccc1; 3Pal = N[C@@H](Cc1cccnc1)C(=O)O; AllylGly = C=CC[C@H](N)C(=O)O; Ahp(2) = CCCCC[C@H](N)C(=O)O; Cba = N[C@@H](CC1CCC1)C(=O)O; αMeC = C[C@](N)(CS)C(=O)O; NMeA = CN[C@@H](C)C(=O)O; Nle = CCCC[C@H](N)C(=O)O

Each molecule was assayed against KRAS-G12D protein (Homo sapiens, UniProt P01116, G12D) (assay: SOS-mediated nucleotide exchange assay (BODIPY-GDP / Tb-streptavidin TR-FRET)).
Sequence of KRAS-G12D protein (P01116 1-188 isoform P01116-2 G12D): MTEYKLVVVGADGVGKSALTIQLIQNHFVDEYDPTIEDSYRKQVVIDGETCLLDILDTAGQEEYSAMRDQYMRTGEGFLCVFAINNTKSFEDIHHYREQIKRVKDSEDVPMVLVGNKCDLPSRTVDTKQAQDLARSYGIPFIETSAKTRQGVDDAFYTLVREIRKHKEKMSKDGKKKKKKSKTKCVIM
Format: biochemical
Molecule `CCCCC[C@@H]1NC(=O)[C@H](Cc2ccc(O)cc2)NC(=O)[C@H](CC(C)C)NC(=O)[C@H](Cc2ccc(O)cc2)NC(=O)[C@H](CCCNC(=N)N)NC(=O)[C@H](Cc2ccccc2)NC(=O)CSC[C@H](C(N)=O)NC(=O)[C@H](Cc2ccccc2)N(C)C1=O` [compound 3, cyclo(F-R-Y-L-Y-Ahp-NMeF-dCl-ClAc)] has a pEC50 of 6.02.
Molecule `CCCC[C@@H]1NC(=O)[C@H](CCCNC(=N)N)NC(=O)[C@H](Cc2ccccc2)NC(=O)CSCCNC(=O)[C@H](Cc2ccccc2)N(C)C(=O)[C@H](CCCC)NC(=O)[C@H](Cc2ccc(O)cc2)NC(=O)[C@H](CC(C)C)NC1=O` [compound 81, cyclo(F-R-Nle-L-Y-Nle-NMeF-Cysteamine-ClAc)] (cyclo(FR[Nle]LY[Nle][NMeF][NHCH2CH2SCH2CO])) has a pEC50 of 5.10.
For `CCCC[C@@H]1NC(=O)[C@H](Cc2ccc(OC)cc2)NC(=O)[C@H](CC(C)C)NC(=O)[C@H](Cc2ccc(NC(=N)N)cc2)NC(=O)[C@H](Cc2ccc3nccc(N)c3c2)NC(=O)[C@H](Cc2ccccc2)NC(=O)CSC[C@@H](C(N)=O)NC(=O)[C@H](Cc2ccccc2)N(C)C1=O` [compound 29, cyclo(F-6Quin4NH2-Phe4Gn-L-TyrOMe-Nle-NMeF-Cl-ClAc)] ({CH2CO}-F[X78][Phe(4-guanidino)]LY(Me)[Nle][NMeF]C-NH2; thioether N-8), the pEC50 was 5.11.
`CCCC[C@@H]1NC(=O)[C@H](Cc2ncc(Cl)cn2)NC(=O)[C@H](C)N(C)C(=O)[C@H](Cc2ccccc2)OC(=O)C23CC(CNC(=O)[C@H](Cc4ccccc4)N(C)C(=O)[C@H](CCCC)NC(=O)[C@H](Cc4ccccc4F)NC1=O)(C2)C3` [compound 321, cyclo(FLac-NMeA-Ala2Pyrim5Cl-Nle-Phe2F-Nle-NMeF-amBCP)] (cyclo([NMeA][X67][Nle][Phe(2-F)][Nle][NMeF][X1][PhLac])) showed a pEC50 of 6.21.
Work on `CCCC[C@@H]1NC(=O)[C@H](Cc2ccc(O)cc2)NC(=O)[C@H](CC(C)C)NC(=O)[C@H](Cc2ccc(O)cc2)NC(=O)[C@H](CCCNC(=N)N)NC(=O)[C@H](Cc2ccccc2)NC(=O)CSCCNC(=O)[C@H](Cc2ccccc2)N(C)C1=O` [compound 69, cyclo(F-R-Y-L-Y-Nle-NMeF-Cysteamine-ClAc)] yielded a pEC50 of 5.83.
With `CCCC[C@@H]1NC(=O)[C@@H]2C/C=C\C[C@@H](C(N)=O)NC(=O)[C@H](CSCC(=O)N[C@@H](Cc3ccccc3)C(=O)N[C@@H](CCCNC(=N)N)C(=O)N[C@@H](Cc3cccnc3)C(=O)N[C@@H](CC3CCC3)C(=O)N2)NC(=O)[C@H](Cc2cccnc2)N(C)C1=O` [SEQ ID NO: 186, cyclo(C1Ac-F-R-3Pal-cBuA-Ape-Nle-NMe3Pal-C)] ({CH2CO}-FR[3Pal][Cba][AllylGly][Nle][NMe3Pal]C[AllylGly]-NH2; staple (Z) 5-9; thioether N-8) the pEC50 was 5.14.
With `CCCC[C@@H]1NC(=O)[C@H](Cc2cncnc2)NC(=O)[C@H](C)N(C)C(=O)[C@H](Cc2ccccc2)OC(=O)C23CC(CNC(=O)[C@H](Cc4ccccc4)N(C)C(=O)[C@H](CCCC)NC(=O)[C@H](Cc4ccccc4F)NC1=O)(C2)C3` [compound 230, cyclo(FLac-NMeA-PyrimAla-Nle-Phe2F-Nle-NMeF-amBCP)] (cyclo([NMeA][Ala(pyrimidin-5-yl)][Nle][Phe(2-F)][Nle][NMeF][X1][PhLac])) the pEC50 was 7.76.
With `CCCCC[C@@H]1NC(=O)[C@H](Cc2ccc(OC)cc2)NC(=O)[C@H](CC2CCC2)NC(=O)[C@H](Cc2ccc(C)nc2)NC(=O)[C@H](CCCNC(=N)N)NC(=O)[C@H](Cc2ccccc2)NC(=O)CSC[C@@](C)(C(N)=O)NC(=O)[C@H](Cc2ccccc2)N(C)C1=O` [compound 364, cyclo(F-R-4Me3Pal-cBuA-TyrOMe-Ahp-NMeF-aMeCl-ClAc)] the pEC50 was 7.47.
Work on `CCCCC[C@@H]1NC(=O)[C@H](Cc2ccc(OC)cc2)NC(=O)[C@H](CC2CCC2)NC(=O)[C@H](Cc2cccnc2)NC(=O)[C@H](C)N(C)C(=O)[C@H](Cc2ccccc2)OC(=O)C23CC(CNC(=O)[C@H](Cc4ccccc4)N(C)C1=O)(C2)C3` [compound 227, cyclo(FLac-NMeA-3Pal-cBuA-TyrOMe-Ahp-NMeF-amBCP)] (cyclo([3Pal][Cba]Y(Me)[Ahp(2)][NMeF][X1][PhLac][NMeA])) yielded a pEC50 of 7.42.
In the case of `CCCCC[C@@H]1NC(=O)[C@H](Cc2ccc(OC)cc2)NC(=O)[C@H](CC2CCC2)NC(=O)[C@H](Cc2cncnc2)NC(=O)[C@H](CCCNC(=N)N)NC(=O)[C@H](Cc2ccccc2)NC(=O)CSC[C@@](C)(C(N)=O)NC(=O)[C@H](Cc2ccccc2)N(C)C1=O` [compound 367, cyclo(F-R-PyrimAla-cBuA-TyrOMe-Ahp-NMeF-aMeCl-ClAc)] ({CH2CO}-FR[Ala(pyrimidin-5-yl)][Cba]Y(Me)[Ahp(2)][NMeF][αMeC]-NH2; thioether N-8), the pEC50 was 8.39.
`CCCCC[C@@H]1NC(=O)[C@H](Cc2ccc(OC)cc2)NC(=O)[C@H](CC2CCC2)NC(=O)[C@H](Cc2cncs2)NC(=O)[C@H](CCCNC(=N)N)NC(=O)[C@H](Cc2ccccc2)NC(=O)CSC[C@@](C)(C(N)=O)NC(=O)[C@H](Cc2ccccc2)N(C)C1=O` [compound 363, cyclo(F-R-TZAla-cBuA-TyrOMe-Ahp-NMeF-aMeCl-ClAc)] ({CH2CO}-FR[Ala(thiazol-5-yl)][Cba]Y(Me)[Ahp(2)][NMeF][αMeC]-NH2; thioether N-8) was tested, and the pEC50 was 7.88.
For `CCCCC[C@@H]1NC(=O)[C@H](Cc2ccc(OC)cc2)NC(=O)[C@H](CC2CCCC2)NC(=O)[C@H](Cc2ccc(NC(=N)N)cc2)NC(=O)[C@H](CCCNC(=N)N)NC(=O)[C@H](Cc2ccccc2)NC(=O)CSC[C@@](C)(C(N)=O)NC(=O)[C@H](Cc2ccccc2)N(C)C1=O` [compound 366, cyclo(F-R-Phe4Gn-cPeA-TyrOMe-Ahp-NMeF-aMeCl-ClAc)] ({CH2CO}-FR[Phe(4-guanidino)][Ala(cPent)]Y(Me)[Ahp(2)][NMeF][αMeC]-NH2; thioether N-8), the pEC50 was 8.40.
Molecule `CCCC[C@@H]1NC(=O)[C@H](Cc2ccc(OC)cc2)NC(=O)[C@H](CC(C)C)NC(=O)[C@H](Cc2ccc(NC(=N)N)cc2)NC(=O)[C@H](CCCN=C(NC)NC)NC(=O)[C@H](Cc2ccccc2)NC(=O)CSC[C@H](C(N)=O)NC(=O)[C@H](Cc2ccccc2)N(C)C1=O` [compound 46, cyclo(F-ArgMeMe-Phe4Gn-L-TyrOMe-Nle-NMeF-dCl-ClAc)] ({CH2CO}-F[Arg(Me2s)][Phe(4-guanidino)]LY(Me)[Nle][NMeF][dC]-NH2; thioether N-8) has a pEC50 of 5.94.
`CCCC[C@@H]1NC(=O)[C@H](Cc2cnccn2)NC(=O)[C@H](C)N(C)C(=O)[C@H](Cc2ccccc2)OC(=O)C23CC(CNC(=O)[C@H](Cc4ccccc4)N(C)C(=O)[C@H](CCCC)NC(=O)[C@H](Cc4ccccc4F)NC1=O)(C2)C3` [compound 322, cyclo(FLac-NMeA-AlaPyrz-Nle-Phe2F-Nle-NMeF-amBCP)] (cyclo([NMeA][Ala(2-pyrazinyl)][Nle][Phe(2-F)][Nle][NMeF][X1][PhLac])) showed a pEC50 of 5.64.
`COc1ccc(C[C@@H]2NC(=O)[C@H](CC3CCC3)NC(=O)[C@H](Cc3cccnc3)NC(=O)[C@H](CCCNC(=N)N)NC(=O)[C@H](Cc3ccccc3)NC(=O)CSC[C@](C)(C(N)=O)NC(=O)[C@@H]3CCCCCCCC[C@H](NC2=O)C(=O)N3C)cc1` (single isomer, unassigned) [SEQ ID NO: 191] was tested, and the pEC50 was 6.49.
